According to patent publication US7164003B2, “Histamine receptor H4 polynucleotides” (Merck & Co. Inc., priority 2001, dated 2007):

Assays:
H4b receptor variant = details: 1 μM in PBS, 37° C., 30 min, transfected COS-7 cells, H4b variant cDNA, compared with H4a-transfected cells
Protocol: (§1) The full length wild type […]) and the isoforms H4b and […] were cloned in pCDNA3.1 […] Tag eukaryotic expression vector for expression in COS-7 cells. The COS-7 cells grown in culture chambers were transfected with 2 μg of plasmid DNA containing either one of the H4 isoforms or the wild type H4 with superfect (Qiagen) transfection reagent. Binding of Histamine to receptor or receptor variants was determined by BODIPY-L-Histamine or Fluorescein Histamine (Molecular Probes, Eugene Oreg.). Briefly, the transfected cells were washed with PBS and 1 μM concentration of BODIPY-L-Histamine or Fluorescein Histamine in PBS was added to the cells and incubated at 37° C. for 30-min. Unbound fluorescent labelled histamine was washed in cold PBS and the slides were examined immediately under a fluorescent microscope.

H4c receptor variant = details: 1 μM in PBS, 37° C., 30 min, transfected COS-7 cells, H4c variant cDNA, compared with H4a-transfected cells
Protocol: as §1

Substance | Binding of fluorescent labelled histamine (fluorescence under microscope) versus H4 wildtype (H4a) (H4b receptor variant) | Binding of fluorescent labelled histamine (fluorescence under microscope) versus H4 wildtype (H4a) (H4c receptor variant)
BODIPY-L-Histamine | qualitatively comparable fluorescence | qualitatively comparable fluorescence
Fluorescein Histamine | qualitatively comparable fluorescence | qualitatively comparable fluorescence
